Assay [1] deals with HepG2 cells. Put plainly: MTT cell viability assay, IC50 in HepG2 cells. Format: cell-based. As to conditions: Homo sapiens, 24 h, SE less than 10% of value. On the procedure: (§1) The human liver hepatocellular carcinoma cell line, HepG2, and the human adenocarcinoma of colon cell line, Caco-2, were cultured in Eagle’s Minimum Essential medium supplemented with 1% (v/v) non-essential amino acids, 0.2 mM L-glutamine, 50 units/mL penicillin, 50 μg/mL streptomycin and 10% (v/v) or 20% (v/v) fetal bovine serum (Sigma Aldrich, Milan, Italy) for HepG2 or Caco-2, respectively. The human embryonal lung fibroblast cell line, MRC5, was cultured in Dulbecco’s Modified Eagle medium (Sigma Aldrich, Milan, Italy) supplemented with 10% (v/v) fetal bovine serum, 0.2 mM L-glutamine, 50 units/mL penicillin and 50 μg/mL streptomycin. HUVEC cells were cultured in endothelial growth medium-2, supplemented with fetal bovine serum (2%), VEGF (0.1%), rH FGF-B (0.4%), rH EGF (0.1%), GA-1000 (0.1%), hydrocortisone (0.04%), R3-IGF-1 (0.1%), heparin (0.1%) and ascorbic acid (0.1%). Cells were maintained at 37 °C in a 5% CO2, 95% air-humidified atmosphere and passaged twice a week. Cell lines were obtained from Interlab Cell Line Collection, Istituto Nazionale per la Ricerca sul Cancro, Genoa, Italy. HUVEC were obtained from Lonza (Milan, Italy).
(§2) An MTT assay was used to analyse cell viability. Cells were seeded in 96 wells at the density of 2 × 10^4/cm^2 and, after 24 h, they were treated with P. tomentosa compounds or with the vehicle (DMSO). After a further 24 h of treatment, 0.5 mg/mL of MTT was added to the cell medium and incubated for 1.5 h at 37 °C. The resulting formazan crystals were dissolved in 100 μL of DMSO and absorbances were measured at 595 nm and 655 nm. The background signals at 655 nm were subtracted from 595 nm signals, and data were expressed as a percent of cell viability. The concentration of each compound that is required for 50% inhibition in vitro (IC50) was calculated as described in Husseini et al.. IC50 values were obtained for Caco-2, HepG2 and MRC5 cells by performing MTT assays with concentrations ranging from 0.01 μg/mL to 5 μg/mL.
Background: Tetrazolium assays rely on reduction of a dye to a coloured formazan, in cell work by metabolically active cells.

A further assay deals with MRC5 cells. Put plainly: MTT cell viability assay, IC50 in MRC5 cells. It counts as cell-based. As to conditions: Homo sapiens, 24 h, SE less than 10% of value. As for the experimental part:
as §1, §2

Assay [2] relates to HepG2 cells. The assay is described as follows: BrdU incorporation (proliferation) assay. It counts as cell-based, human. As to conditions: HepG2, 1 μM, 24 h. As for the experimental part:
Cell proliferation was analysed by a BrdU (Roche Diagnostics SpA, Monza, Italy) incorporation assay, as previously described. Briefly, HepG2 cells, seeded at adensity of 3 × 10^3/cm^2 on round glass cover slips, were treated for 24 h with P. tomentosa compounds at 1 μM. Then, BrdU was added to cell medium (final concentration, 100 μM) for 1 h. Cells were fixed (in 3% paraformaldehyde, 10 min), permeabilised (in 0.2% Triton X-100, 5 min) and treated with HCl 1.5 N (5 min). Finally, cover slips were incubated with a monoclonal antibody against BrdU (Sigma-Aldrich, Milan, Italy), 1:100, and with a TRITC-conjugated secondary antibody, 1:100. After staining with Hoechst, cover slips were mounted with Mowiol (Sigma, Milan, Italy). […] Images were acquired with Axiocam MRc5 and processed with ImageJ Launcher. The number of cells into S-phase was expressed as the ratio between the number of cells incorporating BrdU and the total number of cells.
On the technique in general: Uptake of a labelled nucleoside into DNA is a usual measure of proliferation.

In the next assay the test system is p53 in HepG2 cells. Put plainly: Western blot analysis of p53 expression. It counts as cell-based, human. As to conditions: HepG2, 1 μM, 24 h. On the procedure:
(§3) To analyse the protein levels of p53, caspase-3, GRP78, LC3 and p62, HepG2 cells were treated with P. tomentosa compounds (1 or 2 μM) or with DMSO for the indicated times; then, Western blot analyses were performed. Briefly, cells were lysed in RIPA buffer (20 mM Tris-HCl, pH 7.5, 150 mM NaCl, 1 mM EDTA, 1 mM dithiothreitol, 0.1% sodium dodecyl sulphate, 1% triton X-100, 1 mM orthovanadate, and a cocktail of inhibitors (Sigma-Aldrich, Milan, Italy)). After separation on a sodium dodecyl sulphate-polyacrylamide gel electrophoresis and transfer to a poly-vinylidene fluoride membrane (Euroclone, Milan, Italy), the following primary antibodies were used, at a dilution of 1:1000 in tris-buffered saline containing 1% non-fat dry milk, overnight at 4 °C: mouse anti-p53 antibody, mouse anti-MAP LC3 β antibody, mouse anti-p62 antibody (DBA, Milan, Italy), mouse anti-GRP78 antibody, and mouse anti-caspase 3 antibody (Thermo Fisher Scientific, Milan, Italy). For normalisation, a mouse anti-GAPDH antibody (Microtech, Naples, Italy) was used.
For orientation: In western blotting, separated proteins are transferred to a membrane and probed.

Assay [3] deals with HepG2 cells. The assay is described as follows: Scratch-wound-healing assay. Format: cell-based, human. As to conditions: HepG2, 1 μM, 24, 48 and 72 h. As for the experimental part:
Cells were seeded at a density of 5 × 10^4 cells/well in 24-well plates and allowed to grow for 72 h, reaching confluence. Mitomycin C (10 μg/mL) was added to inhibit proliferation, and then a sterile 2–10 μL pipette tip was used to perform a vertical scratch in the monolayer of each well. Detached cells were removed by washing with phosphate-buffered saline. Then, 300 μL of fresh medium containing P. tomentosa compounds (1 μM) or vehicle was added to each well and incubated for 72 h. Images of migrating cells were taken at 0, 24, 48 and 72 h, by using an Olympus CKX41 fluorescent microscope (Olympus Italia srl, Segrate, Italy) and elaborated by the ImageJ software. For each scratch, wound width was calculated as the average distance between the edges in four different sites. Then, reductions in wound wights at 24, 48 and 72 h were expressed as % of the width at time zero.

In the next assay the test system is caspase-3 in HepG2 cells. The assay is described as follows: Western blot of cleaved caspase-3. It counts as cell-based, human. Particulars: HepG2, 2 μM, 7 h, Western blot densitometry. On the procedure:
as §3

For assay [4], the system named is HepG2 cells. The assay is described as follows: TUNEL assay. Format: cell-based, human. Particulars: HepG2, 1 μM, 24 h. As for the experimental part: Microscopic evaluation of apoptosis was performed by a TUNEL assay, using a commercial kit (Fragment End Labelling (FragEL™), […]) DNA Fragmentation Detection Kit, Sigma-Aldrich, Milan, Italy) according to the manufacturer-provided protocol, with some modifications. Briefly, cells were seeded on glass cover slips placed in 24-well plates at a density of 3.5 × 10^3/cm^2 and, after 48 h, they were treated with 1 μΜ of each compound for a further 24 h. Cells were fixed in 3% paraformaldehyde for 10 min, permeabilised in 0.2% Triton X-100 for 5 min and treated with HCl 1.5 N for 8 min. Finally, cover slips were equilibrated in equilibration buffer (10 min) and incubated with label mix containing the TdT enzyme for 1 h at 37 °C, then mounted with mounting media. Microscope observations were performed by the AxioSkop 40 fluorescent microscope. Images were acquired with Axiocam MRc5 (Carl Zeiss MicroImaging, Inc., Jena, Germany).

In the next assay the test system is LC3 in HepG2 cells. Put plainly: Western blot of LC3 (LC3-I and LC3-II). Format: cell-based, human. Particulars: HepG2, 1 μM, 24 h. As for the experimental part: as §3

As usually defined, the IC50 is the point on the concentration scale where inhibition reaches its midpoint. Low readings indicate higher potency, high ones lower potency.

Each structure is given as a SMILES string.

For the compound `C[C@@H]1C[C@@H](O)[C@]2(O)O[C@@H]3C[C@@]4(C=O)[C@@H](CC[C@@H]5[C@@H]4CC[C@]4(C)[C@@H](C6=CC(=O)OC6)CC[C@]54O)C[C@H]3O[C@@H]2O1` [Compound 5, calactin], the IC50 in the assay on HepG2 cells [1] worked out at 127 nM; with MRC5 cells, 990 nM. Further, in the assay on HepG2 cells [2], the “effect on BrdU incorporation / cell cycle progression” value is recorded as “significantly affected cell cycle progression”. For the same compound, the p53 protein level entry in the assay with p53 in HepG2 cells is recorded as “clearly decreased the p53 amount”. Moreover, the “effect on wound closure” value in the assay on HepG2 cells [3] was “interfered with the wound closure after 48 and 72 h”. Further, the “cleaved caspase-3 (caspase-3 activation)” value with caspase-3 in HepG2 cells is on record as “most active”. Moreover, in the assay with HepG2 cells [4], the “apoptotic nuclei (TUNEL)” value was “occurrence of apoptotic nuclei”. For the same compound, the LC3-I level result in the assay on LC3 in HepG2 cells is “reduction in the LC3-I form”. The LC3-II level result with LC3 in HepG2 cells is “more marked”.

Source of the values: article PMC9369610, “Pro-Apoptotic and Pro-Autophagic Properties of Cardenolides from Aerial Parts of Pergularia tomentosa” (Molecules, 2022).
